Experimental data published in PubChem BioAssay (NCI).
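1) Cells in 96-well plates. 2) Compound, 48 h, 5 concentrations. 3) Linear interpolation between surrounding doses. 4) Unreached endpoint = highest concentration. At the GI50, growth is halved. Definition used: TGI = concentration required for complete inhibition of growth.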 Where a SMILES comes first, the peptide text is derived from it. [ ]: non-standard residue; d: D form. The star is where a group is joined. ξ: configuration not given here. Propanoyl(3-(4-MeO-Ph)) = COc1ccc(CCC(=O)*)cc1; Thr(3ξ) = CC(O)[C@H](N)C(=O)O; dNMeL = CN[C@H](CC(C)C)C(=O)O; pGlu = O=C1CC[CH](C(=O)O)N1; ξLac = CC(O)C(=O)O

How the values were obtained:
Assay in all cases: inhibition of tumour cell growth, NCI panel, 48 h
SW-620 colon = test system: SW-620 colon
KM12 colon = test system: KM12 colon
MCF7 breast = test system: MCF7 breast
UACC-62 melanoma = test system: UACC-62 melanoma
A498 renal = test system: A498 renal
NCI-H522 lung = test system: NCI-H522 lung
DU-145 prostate = test system: DU-145 prostate
HT29 colon = test system: HT29 colon
OVCAR-4 ovarian = test system: OVCAR-4 ovarian

SMILES	TGI (SW-620 colon) [µM]	TGI (KM12 colon) [µM]	TGI (MCF7 breast) [µM]	TGI (UACC-62 melanoma) [µM]	TGI (A498 renal) [µM]	TGI (NCI-H522 lung) [µM]	TGI (DU-145 prostate) [µM]	TGI (HT29 colon) [µM]	TGI (OVCAR-4 ovarian) [µM]	GI50 (SW-620 colon) [µM]	GI50 (KM12 colon) [µM]	GI50 (MCF7 breast) [µM]	GI50 (UACC-62 melanoma) [µM]	GI50 (A498 renal) [µM]	GI50 (NCI-H522 lung) [µM]	GI50 (DU-145 prostate) [µM]	GI50 (HT29 colon) [µM]
CC1(C)O[C@H]2OC(CO)C(OS(C)(=O)=O)[C@H]2O1 (some centres undefined)	> 100	> 100	> 100	> 100	> 100	> 100	> 100	> 100									
O=C(Cc1ccccc1)N=Nc1c(O)[nH]c2ccccc12		> 100	> 100	> 100	80.4	> 100	> 100	> 100	> 100								
O=C(O)CN(CC(=O)O)Cc1ccn(-c2cccc(-n3ccc(CN(CC(=O)O)CC(=O)O)n3)n2)n1	> 100	> 100	> 100	> 100		> 100	> 100	> 100									
COc1ccc(S(=O)(=O)Nc2ccc(-c3csc(N4C(=O)/C(=C/c5ccccc5)N=C4c4ccccc4)n3)cc2)cc1Cl	> 100	> 100	> 100	> 100	48.7	> 100	86.8	> 100	99.4								
O=C1c2ccccc2-c2nnc(-c3ccc(Cl)cc3)cc21	> 10	> 10	> 10	> 10	> 10	> 10	> 10	> 10	> 10								
Cn1c(N=[N+]=[N-])cc(=O)n(C)c1=O	> 100	> 100		> 100	> 100	> 100		> 100	> 100								
O=[N+]([O-])c1ccc2nc(/C=C(\O)c3ccccc3)c(/C=C(\O)c3ccccc3)nc2c1	61.4	> 100	> 100	18.8	> 86.2	38.7	> 91	> 100	32.5	6.11							
Cc1oncc1NC1=CC(=O)C(=O)c2ccccc21	17.1	42.1	9.63	8.4	17.9	19.2	31.7	11.6	12.9								
COc1ccc(NCc2cnc3nc(N)nc(N)c3c2C)cc1	> 100	> 100	> 100	> 100	> 100	> 100		> 100	> 100								
COC12OC3CC4(C)C(=CC3OC(OC(C)C1O)C2O)CCC1C4CCC2(C)C(c3ccc(=O)oc3)CCC12O (centres undefined)	0.00731	0.00739	0.00432	0.00472	0.0144	< 0.001	0.00209	0.00277	0.00199								
CCCCCCCCCCCCCCCCCCOc1ccc(/C=C/C2=[N+](CCCl)CCO2)cc1	> 100	> 100	> 100	> 100	> 100	> 100	> 100	> 100	> 100								
NC(=O)C[C@H](NC(=O)C1(NC(=O)[C@H](Cc2ccc(CP(=O)(O)O)cc2)NC(=O)C(=O)O)CCCCC1)C(=O)NCCCc1cccc2ccccc12	> 10	> 10	> 10	> 10	> 10	> 10	> 10	> 10	> 10								
CNc1ncnc2c1nnn2C	> 100	> 100	> 100	> 100	> 100	> 100	> 100	> 100	> 100								
CSC1(SC)N2Cc3ccccc3N=C2C1(c1ccccc1)c1ccccc1	> 63.7	> 35.6	> 87.9	> 55.3	> 46.9	29.4	> 100	> 100	> 100								
C=CCCC(On1c(-c2ccc(Cl)cc2)csc1=S)c1ccccc1 (centres undefined)	> 100	> 100	> 100	> 100	> 100	71.7	> 100	> 100	> 100								
O=C(Cn1c(=O)oc2ccc(C(=O)c3ccccc3Cl)cc21)c1ccc([N+](=O)[O-])cc1	> 100	58.1	89.1	40.7	> 100	39.9	> 100	> 100	> 100								
NC(=O)CCC(NC(=O)c1cccc2c(=O)c3ccccc3[nH]c12)C(=O)O (centres undefined)	> 100	> 100	> 100	> 100	> 100	> 100	> 100	> 100	> 100								
COC(=O)[C@@H](NC(=O)[C@@H](CC(C)C)N(C)C(=O)[C@@H]1CCCN1C(=O)C(C)O)C(C)OC(=O)CCc1ccc(OC)cc1 (some centres undefined) (H-[ξLac]P[dNMeL][Thr(3ξ)](Propanoyl(3-(4-MeO-Ph)))-OMe)	> 100	> 100	> 100	> 100	> 100	> 100	> 100	> 100	> 100								
COc1nc2ccc(CNc3ccc(C(=O)O)cc3)cc2nc1OC	> 10	> 10	> 10	> 10	> 10	> 10	> 10	> 10	> 10								
COc1cc2c(cc1OC(=O)c1cc3ccccc3[nH]1)N=C[C@@H]1CCCN1C2=O	10.4	3.15	13	0.707	0.599	1.19	11.7	0.36	2.15								
c1ccc(CCN2CCN=C2Cc2ccccc2)cc1	> 100	> 100	> 100	> 100	> 100	> 100	> 100	> 100	> 100								
CC(C)=CCCC1(Sc2ccccc2)C(=O)OCC1C=C(C)C (centres undefined)	> 100	> 100	> 100		> 100	47.4			> 100								
COc1cc(C2c3cc4c(cc3OC3(OC)COC(=O)C23)OCO4)cc(OC)c1OC (centres undefined)	> 100	7.68	> 56.8	> 20.5	2.38	3.19	6.51	0.804	> 100								
Clc1ccc2nc(CC3CCCC3)[nH]c2c1	> 100	38.8	22	33.4		21.2	54.6	33.5	45.8								

SMILES	TGI (SW-620 colon) [µM]	TGI (KM12 colon) [µM]	TGI (MCF7 breast) [µM]	TGI (UACC-62 melanoma) [µM]	TGI (A498 renal) [µM]	TGI (NCI-H522 lung) [µM]	TGI (DU-145 prostate) [µM]	TGI (HT29 colon) [µM]	TGI (OVCAR-4 ovarian) [µM]	GI50 (SW-620 colon) [µM]	GI50 (KM12 colon) [µM]	GI50 (MCF7 breast) [µM]	GI50 (UACC-62 melanoma) [µM]	GI50 (A498 renal) [µM]	GI50 (NCI-H522 lung) [µM]	GI50 (DU-145 prostate) [µM]	GI50 (HT29 colon) [µM]
CCOc1cc2c(cc1O)CC[C@@H]1[C@@H]2CC[C@]2(C)C(OS(=O)OC3CC[C@@H]4[C@H]5CCc6cc(O)c(OCC)cc6[C@@H]5CC[C@@]34C)CC[C@@H]12 (some centres undefined)	11	> 35.1	7.01	30.9	36.6		11.5	> 53.7	> 64.5								
Cn1cc(-c2nc(-c3c[nH]c4ccncc34)cs2)c2cc(F)ccc21	3.4	3.11	2.88	3.18	3.43	3.23	3.14	2.93		1.65	1.63	1.23	1.71	1.8	1.67	1.71	1.44
NC(=O)c1ncn2c(=O)n(CCl)nnc12	> 100	> 100	> 100	> 100	> 100	> 100	> 100	> 100	> 100								
N#CCSc1c(-c2ccccc2)c(=O)n(-c2ccccc2)c(=S)n1-c1ccccc1	> 100	> 100	> 100	> 100		> 100		> 100	> 100								
COc1ccc(-c2nnc(-c3ccncc3)o2)cc1			> 100	> 100	> 100	> 100	> 100	> 100	> 100								
Nc1nn(CC(O)CO)c(=O)s1 (centres undefined)	> 100			> 100	> 100			> 100	> 100								
COC(=O)C(Cc1ccccc1)NC(=O)c1ccc(CNC(=S)NCc2cccc(CNC(=S)NCc3ccccc3)c2)cc1 (centres undefined)	> 62.5	> 62.5	> 62.5	> 62.5	> 62.5	> 62.5	> 62.5	> 62.5	> 62.5								
Cc1c(O)c(=O)ccn1CCc1c[nH]c2ccccc12	> 100	> 100	33.2				35.4	32.7									
COC(=O)c1c(O)ccc2c1c1c(n2Cc2ccccc2OC)C(=O)c2ccccc2C1	> 100	> 100	> 100	> 100	> 100		> 100	> 100	87.9								
CC(=O)NC(C)c1ccc(N=NN2CCCC2)cc1 (centres undefined)	> 100	> 100	> 100		> 100	> 100	> 100	> 100	> 100								
COc1cc(/C=C2\N=C(C)N(n3c(-c4ccccc4)nc4ccccc4c3=O)C2=O)cc(OC)c1OC	> 100	> 100	> 100	> 100	> 100	> 100	> 100	> 100									
COc1c(-c2cccs2)oc2c(CC(=O)O)cccc2c1=O			> 100	> 100	> 100	> 100	> 100										
CC(NC(=O)C(Cc1cnc[nH]1)NC(=O)C1CCC(=O)N1)C(N)=O (stereo not drawn) ([pGlu]-His-Ala-NH2; configuration not given here)	> 100	> 100	> 100	> 100			> 100	> 100									
CCOC(=O)c1nc2cc(C(F)(F)F)ccc2nc1Nc1ccc(F)cc1	> 100	> 100	> 100	> 100	> 100		> 100	> 100	86.1								
COc1ccc(/C=N\NC(=O)Nc2cccc3ccccc23)cc1	> 100	> 100	> 100		51.6	> 100	> 100	> 100	43.2								
CC(O)c1cc2c(s1)C(=O)c1scc(C(C)O)c1C2=O (centres undefined)	> 100		3.01	0.587	4.36	2.56	1.73	5.27	1.73								
CN1CCN(/C(N)=C(\C#N)C(=O)Nc2ccccc2)CC1	> 100	> 100	> 100	> 100	> 100		> 100										
Cc1ccc(C(=O)C2=CN=C3C(=O)N(c4ccccc4)N(C)C3(C)C2=N)cc1 (centres undefined)	> 100	> 100	> 100	> 100	> 100	> 100	> 100		> 100								
COc1ccc(/C=N/n2cnc3c(c2=O)S/C(=C2/SC(=S)N(c4ccc(C)cc4)C2=O)N3c2ccccc2)cc1	> 100	> 100		51.9		> 100		> 100	94.1								
CC1(C)OCC(COC(=O)NCn2cc(-c3ccccc3)nn2)O1 (centres undefined)	> 100	> 100	> 100			> 100	> 100	> 100	> 100								
CC1=Nc2c(C#N)ncn2N=C(C)C1	> 100	> 100	> 100	> 100	> 100		> 100	> 100	> 100								
Cc1nc2c(Cl)cc(Cl)cc2c(Cl)c1CCCl	> 100	> 100	> 100	> 100	> 100	> 100	> 100	> 100									
CCOC(=O)C1=NN(c2ccc(Cl)cc2)C2=CC(C)=NN(C)C(=S)N21	> 100	> 100		> 100		46.9	> 100	> 100	> 100								
CCOC(=O)C1C[C@H]2CO[C@H](c3ccccc3)N2C1=O (some centres undefined)	> 100	> 100	> 100	> 100		> 100	> 100	> 100	> 100								
